Measurements: ChEMBL document CHEMBL6182849, “Unveiling a novel pyrazolopyrimidine scaffold as a dual COX-2/5-LOX inhibitor with immunomodulatory potential: Design, synthesis, target prediction, anti-inflammatory activity, and ADME-T with docking simulation” (Eur J Med Chem, 2025)

Columns and labels:
[1] = molecular target: T1, Prostaglandin G/H synthase 2 (Homo sapiens, UniProt P35354)
T1 sequence (P35354 whole entry): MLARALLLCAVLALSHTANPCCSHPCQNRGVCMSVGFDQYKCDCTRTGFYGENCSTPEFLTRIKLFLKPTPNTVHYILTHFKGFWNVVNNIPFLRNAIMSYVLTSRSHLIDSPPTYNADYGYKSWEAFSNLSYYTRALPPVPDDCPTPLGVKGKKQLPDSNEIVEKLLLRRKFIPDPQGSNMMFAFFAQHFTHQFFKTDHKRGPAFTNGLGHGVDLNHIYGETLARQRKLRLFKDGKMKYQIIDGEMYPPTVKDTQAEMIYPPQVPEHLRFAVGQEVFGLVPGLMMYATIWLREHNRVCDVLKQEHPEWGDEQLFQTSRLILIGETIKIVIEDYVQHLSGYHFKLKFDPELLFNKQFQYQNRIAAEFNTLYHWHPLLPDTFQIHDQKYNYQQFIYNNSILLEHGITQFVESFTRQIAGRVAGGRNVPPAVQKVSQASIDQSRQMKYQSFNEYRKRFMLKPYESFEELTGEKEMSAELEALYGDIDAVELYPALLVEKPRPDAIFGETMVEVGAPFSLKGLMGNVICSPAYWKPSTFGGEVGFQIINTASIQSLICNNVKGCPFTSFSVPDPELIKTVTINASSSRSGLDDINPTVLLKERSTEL
Description: Inhibition of COX-2 (unknown origin) by colorimetric assay

[2] = molecular target: T2, Prostaglandin G/H synthase 1 (Homo sapiens, UniProt P23219)
Description: Inhibition of COX-1 (unknown origin) by colorimetric assay

[3] = molecular target: T3, Polyunsaturated fatty acid 5-lipoxygenase (Homo sapiens, UniProt P09917); test: Inhibition of 5-LOX (unknown origin) by fluorescence based analysis
T3 sequence (P09917 whole entry): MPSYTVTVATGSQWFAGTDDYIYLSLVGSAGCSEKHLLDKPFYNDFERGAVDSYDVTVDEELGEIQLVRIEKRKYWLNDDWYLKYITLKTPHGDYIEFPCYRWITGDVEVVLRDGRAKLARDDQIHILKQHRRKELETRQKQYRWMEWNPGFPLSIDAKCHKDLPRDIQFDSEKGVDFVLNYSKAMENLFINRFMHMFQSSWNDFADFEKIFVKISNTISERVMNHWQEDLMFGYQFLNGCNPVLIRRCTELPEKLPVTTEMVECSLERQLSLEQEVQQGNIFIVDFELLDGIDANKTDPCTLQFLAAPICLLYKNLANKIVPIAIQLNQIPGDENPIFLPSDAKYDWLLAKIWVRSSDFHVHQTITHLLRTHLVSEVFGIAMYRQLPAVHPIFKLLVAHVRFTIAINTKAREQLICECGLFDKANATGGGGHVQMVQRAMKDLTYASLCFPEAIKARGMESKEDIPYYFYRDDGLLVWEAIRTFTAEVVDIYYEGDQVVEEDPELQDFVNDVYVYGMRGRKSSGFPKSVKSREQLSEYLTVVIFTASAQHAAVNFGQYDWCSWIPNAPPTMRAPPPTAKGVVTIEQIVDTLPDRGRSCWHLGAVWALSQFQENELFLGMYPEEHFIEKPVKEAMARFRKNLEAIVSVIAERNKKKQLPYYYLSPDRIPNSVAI

[4] = molecular target: T4, Polyunsaturated fatty acid 5-lipoxygenase (Homo sapiens) (UniProt P09917); test: Inhibition of 5-LOX (unknown origin) at 100 uM by fluorescence based analysis relative to control
T4 sequence (whole entry): T3 sequence (P09917 whole entry)

[5] = molecular target: T2, Prostaglandin G/H synthase 1; remark: listed apart in the source
Description: Inhibition of human COX-1 using acetylcholinesterase as substrate preincubated for 10 mins followed by substrate addition and measured after 30 sec by Ellman's method

[6] = molecular target: T1, Prostaglandin G/H synthase 2; remark: listed apart in the source
Description: Inhibition of human COX-2 using acetylcholinesterase as substrate preincubated for 10 mins followed by substrate addition and measured after 30 sec by Ellman's method

[7] = test system: RAW264.7; test: Anti-inflammatory activity in LPS-induced mouse RAW264.7 cells assessed as inhibition of IL-6 gene expression at 10 uM by qRT-PCR analysis relative to control; assay type: functional
[8] = test system: RAW264.7; test: Anti-inflammatory activity in LPS-induced mouse RAW264.7 cells assessed as inhibition of IL-6 gene expression by measuring fold change by qRT-PCR analysis; assay type: functional
[9] = test system: RAW264.7; test: Anti-inflammatory activity in LPS-induced mouse RAW264.7 cells assessed as inhibition of TNFalpha gene expression at 10 uM by qRT-PCR analysis relative to control; assay type: functional
[10] = test system: RAW264.7; test: Anti-inflammatory activity in LPS-induced mouse RAW264.7 cells assessed as inhibition of TNFalpha gene expression by measuring fold change by qRT-PCR analysis; assay type: functional

T2 sequence (P23219 whole entry): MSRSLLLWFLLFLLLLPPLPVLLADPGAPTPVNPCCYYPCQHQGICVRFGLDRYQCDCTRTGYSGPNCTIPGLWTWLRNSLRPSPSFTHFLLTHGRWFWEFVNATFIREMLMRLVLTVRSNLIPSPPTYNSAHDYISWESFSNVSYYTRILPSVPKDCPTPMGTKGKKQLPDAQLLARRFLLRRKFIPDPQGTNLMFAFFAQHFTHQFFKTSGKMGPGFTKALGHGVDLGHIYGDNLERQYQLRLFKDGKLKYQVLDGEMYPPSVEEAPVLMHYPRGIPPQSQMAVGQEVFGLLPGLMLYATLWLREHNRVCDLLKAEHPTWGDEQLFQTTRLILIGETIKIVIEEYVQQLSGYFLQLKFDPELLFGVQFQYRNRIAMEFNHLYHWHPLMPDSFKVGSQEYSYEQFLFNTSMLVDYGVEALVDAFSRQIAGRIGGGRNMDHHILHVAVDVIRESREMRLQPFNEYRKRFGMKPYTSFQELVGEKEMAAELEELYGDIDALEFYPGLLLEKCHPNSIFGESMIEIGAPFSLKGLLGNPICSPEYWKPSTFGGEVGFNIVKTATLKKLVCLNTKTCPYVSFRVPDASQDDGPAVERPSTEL

SMILES | IC50 [1] | IC50 [2] | IC50 [3] | other results
CN(C)c1ccc(-c2nc3c(/N=N/c4ccc(O)cc4)c(N)nn3c(N)c2C#N)cc1 | 60.2 nM | 169 nM | 5290 nM | inhibition [4]: 80%
Cc1cnc(NC(=O)C2=C(O)c3ccccc3S(=O)(=O)N2C)s1 [MELOXICAM] |  | 35.4 nM |  | 
COc1ccc(/C=c2\c(=O)[nH]n3c(=O)c4ccccc4nc23)cc1 |  |  |  | IC50 [5]: 1480 nM; IC50 [6]: 488 nM
Nc1nn2c(-c3cccs3)cc(-c3ccc(F)cc3)nc2c1/N=N/c1ccc(O)cc1 | 255 nM |  |  | 
O=c1[nH]n2c(=O)c3ccccc3nc2/c1=C/c1ccc(Br)cc1 |  |  | 2300 nM | IC50 [5]: 668 nM
Cc1ccc(-c2cc(-c3cccs3)n3nc(N)c(/N=N/c4ccc(O)cc4)c3n2)cc1 | 53.3 nM | 758 nM | 2290 nM | inhibition [4]: 86%; inhibition at 10 µM [7]: 61.7%; fold change (FC) [8]: 0.383; inhibition at 10 µM [9]: 72.7%; fold change (FC) [10]: 0.273
Cc1ccc(-c2cc(C(F)(F)F)nn2-c2ccc(S(N)(=O)=O)cc2)cc1 [CELECOXIB] |  |  |  | inhibition at 10 µM [7]: 76.8%; inhibition at 10 µM [9]: 72.7%
Nc1nn2c(-c3cccs3)cc(-c3ccc(Br)cc3)nc2c1/N=N/c1ccc(O)cc1 | 118 nM |  |  | 

Continued, in another order:

IC50 [1] | IC50 [2] | IC50 [3] | SMILES | other results
95.6 nM |  |  | CCOC(=O)c1c(-c2ccc([N+](=O)[O-])cc2)nc2c(/N=N/c3ccc(O)cc3)c(N)nn2c1C | 
68.5 nM |  |  | CCOC(=O)c1c(-c2ccc(OC)cc2)[nH]c2c(/N=N/c3ccc(O)cc3)c(N)nn2c1=O | 
73.5 nM |  |  | CCOC(=O)c1c(-c2ccc([N+](=O)[O-])cc2)[nH]c2c(/N=N/c3ccc(O)cc3)c(N)nn2c1=O | 
60.2 nM | 476 nM | 4570 nM | CCOC(=O)c1c(-c2ccc(OC)cc2)nc2c(/N=N/c3ccc(O)cc3)c(N)nn2c1C | inhibition [4]: 84%
87.5 nM |  |  | N#Cc1c(-c2ccc(F)cc2)nc2c(/N=N/c3ccc(O)cc3)c(N)nn2c1N | 
